According to patent publication US10793574B2, “TYK2 inhibitors and uses thereof” (Nimbus Lakshmi, Inc., priority 2016, dated 2020):

Tests used:
TYK2 JH1 kinase = TYK2 JH1 kinase (Homo sapiens (Human), UniProt P29597); test: Tyk2 radioactive kinase assay; assay type: biochemical; conditions: active kinase assay, ATP 10 μM
Procedure: (§1) Peptide substrate, [KKSRGDYMTMQIG], (20 μM) is prepared in reaction buffer (20 mM Hepes pH 7.5, 10 mM MgCl2, 1 mM EGTA, 0.02% Brij35, 0.02 mg/mL BSA, 0.1 mM […], 2 mM DTT, 1% DMSO. TYK2 (Invitrogen) kinase is added, followed by compounds in DMSO. 33PATP is added to initiate the reaction in ATP at 10 μM. Kinase reaction is incubated for 120 min at room temp and reactions are spotted onto P81 ion exchange paper (Whatman #3698-915), and then washed extensively in 0.75% phosphoric acid, prior to reading the radioactivity counts. For JAK2 (Invitrogen) kinase assay the peptide substrate poly[Glu:Tyr](4:1), 0.2 mg/ml is used, in the reaction carried out the same as for TYK2.

JAK2 JH1 kinase = JAK2 JH1 kinase (Homo sapiens (Human), UniProt O60674); test: JAK2 radioactive kinase assay; assay type: biochemical; conditions: active kinase assay, ATP 10 μM
JAK2 JH1 kinase, sequence (O60674 808-1132): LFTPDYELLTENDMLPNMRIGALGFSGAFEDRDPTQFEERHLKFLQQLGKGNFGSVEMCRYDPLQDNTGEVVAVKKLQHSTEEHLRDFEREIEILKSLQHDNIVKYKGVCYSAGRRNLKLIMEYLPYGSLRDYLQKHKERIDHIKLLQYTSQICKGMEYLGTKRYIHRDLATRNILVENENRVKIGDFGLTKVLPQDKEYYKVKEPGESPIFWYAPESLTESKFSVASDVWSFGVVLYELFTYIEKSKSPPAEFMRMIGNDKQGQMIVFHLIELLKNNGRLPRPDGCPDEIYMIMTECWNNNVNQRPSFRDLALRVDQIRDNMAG
Procedure: as §1

TYK2 JH1 kinase, sequence (P29597 833-1187): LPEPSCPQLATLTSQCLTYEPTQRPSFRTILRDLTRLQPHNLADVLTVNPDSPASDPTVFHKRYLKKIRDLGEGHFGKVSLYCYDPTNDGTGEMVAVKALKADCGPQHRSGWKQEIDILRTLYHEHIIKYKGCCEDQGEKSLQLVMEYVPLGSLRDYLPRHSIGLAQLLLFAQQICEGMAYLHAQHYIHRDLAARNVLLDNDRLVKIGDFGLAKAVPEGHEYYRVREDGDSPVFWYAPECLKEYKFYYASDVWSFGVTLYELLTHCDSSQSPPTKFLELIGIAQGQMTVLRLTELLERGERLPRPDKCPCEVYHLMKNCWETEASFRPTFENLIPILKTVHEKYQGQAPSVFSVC

SMILES	inhibitory activity against TYK2 JH1 kinase function (TYK2 JH1 kinase)	inhibitory activity against JAK2 JH1 kinase function (JAK2 JH1 kinase)
COc1c(Nc2cc(NC(=O)C3CC3)nc3[nH]n(C)c(=O)c23)cccc1-c1nnn(C)n1 [Compound I-1, N-(4-((2-methoxy-3-(2-methyl-2H-tetrazol-5-yl)phenyl)amino)-2-methyl-3-oxo-2,3-dihydro-1H-pyrazolo[3,4-b]pyridin-6-yl)cyclopropanecarboxamide]	no detectable inhibitory activity	
COCc1ccnc(Nc2cc(Nc3cccc(-c4nnn(C)n4)c3OC)c3c(=O)n(C)[nH]c3n2)c1 [Compound I-2, 4-((2-methoxy-3-(2-methyl-2H-tetrazol-5-yl)phenyl)amino)-6-((4-(methoxymethyl)pyridin-2-yl)amino)-2-methyl-1,2-dihydro-3H-pyrazolo[3,4-b]pyridin-3-one]	no detectable inhibitory activity	
COc1c(Nc2cc(NC(=O)C3CC3)ncc2-c2ncc(Cl)s2)cccc1-c1nnn(C)n1 [VIII-1, N-(5-(5-chlorothiazol-2-yl)-4-((2-methoxy-3-(2-methyl-2H-tetrazol-5-yl)phenyl)amino)pyridin-2-yl)cyclopropanecarboxamide]	no detectable inhibitory activity	no detectable inhibitory activity
COc1c(Nc2cc(NC(=O)C3CC3)ncc2-c2ncc(F)s2)cccc1-c1nnn(C)n1 [VIII-2, N-(5-(5-fluorothiazol-2-yl)-4-((2-methoxy-3-(2-methyl-2H-tetrazol-5-yl)phenyl)amino)pyridin-2-yl)cyclopropanecarboxamide]	no detectable inhibitory activity	no detectable inhibitory activity
COc1c(Nc2cc(NC(=O)C3CC3)ncc2-c2nnc(C(F)(F)F)o2)cccc1-c1ncn(C)n1 [VIII-3, N-(4-((2-methoxy-3-(1-methyl-1H-1,2,4-triazol-3-yl)phenyl)amino)-5-(5-(trifluoromethyl)-1,3,4-oxadiazol-2-yl)pyridin-2-yl)cyclopropanecarboxamide]	no detectable inhibitory activity	no detectable inhibitory activity
COC(=O)c1nnc(-c2cnc(NC(=O)C3CC3)cc2Nc2cccc(-c3ncn(C)n3)c2OC)o1 [VIII-4, methyl 5-(6-(cyclopropanecarboxamido)-4-((2-methoxy-3-(1-methyl-1H-1,2,4-triazol-3-yl)phenyl)amino)pyridin-3-yl)-1,3,4-oxadiazole-2-carboxylate]	no detectable inhibitory activity	no detectable inhibitory activity
